Source: ChEMBL document CHEMBL3885881, “DrugMatrix”

Species: Rattus norvegicus
Experiment: DrugMatrix - Regimen: Daily Repeat
Type: toxicity, organism-based, Sprague-Dawley
Parameters: regimen Daily Repeat, gender Male, age 6-8 weeks
Settings: in vivo, iv, vehicle 100 % SALINE; for ABSOLUTE BASOPHIL / ABSOLUTE EOSINOPHIL / ABSOLUTE LYMPHOCYTE / ABSOLUTE MONOCYTE / ABSOLUTE SEGMENTED NEUTROPHIL / BASOPHIL / EOSINOPHIL / ERYTHROCYTE COUNT / HEMATOCRIT / HEMOGLOBIN / LEUKOCYTE COUNT / LYMPHOCYTE / MEAN CORPUSCULAR HEMOGLOBIN / MEAN CORPUSCULAR HEMOGLOBIN CONCENTRATION / MEAN CORPUSCULAR VOLUME / MONOCYTE / NUCLEATED RED BLOOD CELLS / PLATELET COUNT: tissue Blood; for ALANINE AMINOTRANSFERASE / ALBUMIN / ALKALINE PHOSPHATASE / ASPARTATE AMINOTRANSFERASE / BLOOD UREA NITROGEN / CARBON DIOXIDE / CHLORIDE / CHOLESTEROL / CREATINE PHOSPHOKINASE / CREATININE / GLUCOSE / LACTATE DEHYDROGENASE / PHOSPHORUS / POTASSIUM / SODIUM / TOTAL BILIRUBIN / TOTAL PROTEIN / URIC ACID: tissue Plasma
[1] = 25 mg/kg, 72 h, dose level Low, time 3 day
[2] = 25 mg/kg, 120 h, dose level Low, time 5 day
[3] = 160 mg/kg, 72 h, dose level High, time 3 day
[4] = 160 mg/kg, 120 h, dose level High, time 5 day

`CN[C@H](CC(C)C)C(=O)N[C@H]1C(=O)N[C@@H](CC(N)=O)C(=O)N[C@H]2C(=O)N[C@H]3C(=O)N[C@H](C(=O)N[C@H](C(=O)O)c4cc(O)cc(O)c4-c4cc3ccc4O)[C@H](O)c3ccc(c(Cl)c3)Oc3cc2cc(c3O[C@@H]2O[C@H](CO)[C@@H](O)[C@H](O)[C@H]2O[C@H]2C[C@](C)(N)[C@H](O)[C@H](C)O2)Oc2ccc(cc2Cl)[C@H]1O` [VANCOMYCIN] was tested, and the “ABSOLUTE BASOPHIL” value [1] was 0 CELLS/uL, the “ABSOLUTE EOSINOPHIL” value [1] was 39.33 CELLS/uL and the “ABSOLUTE LYMPHOCYTE” value [1] was 11516.33 CELLS/uL. The “ABSOLUTE MONOCYTE” value [1] was 255.67 CELLS/uL, the “ABSOLUTE SEGMENTED NEUTROPHIL” value [1] was 1222 CELLS/uL and the BASOPHIL [1] was 0%. The EOSINOPHIL [1] was 0.33%, the “ERYTHROCYTE COUNT” value [1] was 5.26 x10E6/uL and the HEMATOCRIT [1] was 34.27%. The HEMOGLOBIN [1] was 13.57 G/DL, the “LEUKOCYTE COUNT” value [1] was 13.03 x10E3/uL and the LYMPHOCYTE [1] was 88.33%. For the same compound, the “MEAN CORPUSCULAR HEMOGLOBIN” value [1] was 25.87 pg, the “MEAN CORPUSCULAR HEMOGLOBIN CONCENTRATION” value [1] was 39.63 G/DL and the “MEAN CORPUSCULAR VOLUME” value [1] was 65.13 fL. The MONOCYTE [1] was 2%, the “NUCLEATED RED BLOOD CELLS” value [1] was 0 /100WBC and the “PLATELET COUNT” value [1] was 1239 x10E3/uL. The “ALANINE AMINOTRANSFERASE” value [1] was 49 u/L, the ALBUMIN [1] was 4.13 G/DL and the “ALKALINE PHOSPHATASE” value [1] was 403 u/L. The “ASPARTATE AMINOTRANSFERASE” value [1] was 88 u/L, the “BLOOD UREA NITROGEN” value [1] was 17.67 mg/dL and the “CARBON DIOXIDE” value [1] was 28 mmol/L. For the same compound, the CHLORIDE [1] was 100.67 MEQ/L, the CHOLESTEROL [1] was 67.33 mg/dL and the “CREATINE PHOSPHOKINASE” value [1] was 365.67 u/L. The CREATININE [1] was 0.22 mg/dL, the GLUCOSE [1] was 144 mg/dL and the “LACTATE DEHYDROGENASE” value [1] was 331.67 u/L. The PHOSPHORUS [1] was 12.13 mg/dL, the POTASSIUM [1] was 6.95 MEQ/L and the SODIUM [1] was 142.77 MEQ/L. For the same compound, the “TOTAL BILIRUBIN” value [1] was 0.23 mg/dL, the “TOTAL PROTEIN” value [1] was 5.77 G/DL and the “URIC ACID” value [1] was 1.33 mg/dL. The “ABSOLUTE BASOPHIL” value [2] was 0 CELLS/uL, the “ABSOLUTE EOSINOPHIL” value [2] was 41.33 CELLS/uL and the “ABSOLUTE LYMPHOCYTE” value [2] was 15492.33 CELLS/uL. For the same compound, the “ABSOLUTE MONOCYTE” value [2] was 306.33 CELLS/uL, the “ABSOLUTE SEGMENTED NEUTROPHIL” value [2] was 660 CELLS/uL and the BASOPHIL [2] was 0%. The EOSINOPHIL [2] was 0.33%, the “ERYTHROCYTE COUNT” value [2] was 5.54 x10E6/uL and the HEMATOCRIT [2] was 34.03%. The HEMOGLOBIN [2] was 13.7 G/DL, the “LEUKOCYTE COUNT” value [2] was 16.5 x10E3/uL and the LYMPHOCYTE [2] was 94%. For the same compound, the “MEAN CORPUSCULAR HEMOGLOBIN” value [2] was 24.73 pg, the “MEAN CORPUSCULAR HEMOGLOBIN CONCENTRATION” value [2] was 40.23 G/DL and the “MEAN CORPUSCULAR VOLUME” value [2] was 61.4 fL. For the same compound, the MONOCYTE [2] was 1.67%, the “NUCLEATED RED BLOOD CELLS” value [2] was 0.33 /100WBC and the “PLATELET COUNT” value [2] was 1313.33 x10E3/uL. The “ALANINE AMINOTRANSFERASE” value [2] was 58.33 u/L, the ALBUMIN [2] was 4.03 G/DL and the “ALKALINE PHOSPHATASE” value [2] was 397.67 u/L. The “ASPARTATE AMINOTRANSFERASE” value [2] was 92.67 u/L, the “BLOOD UREA NITROGEN” value [2] was 17.67 mg/dL and the “CARBON DIOXIDE” value [2] was 31.33 mmol/L. For the same compound, the CHLORIDE [2] was 100 MEQ/L, the CHOLESTEROL [2] was 76.33 mg/dL and the “CREATINE PHOSPHOKINASE” value [2] was 598 u/L. The CREATININE [2] was 0.26 mg/dL, the GLUCOSE [2] was 165.33 mg/dL and the “LACTATE DEHYDROGENASE” value [2] was 117 u/L. It also gave a PHOSPHORUS [2] of 11.5 mg/dL, a POTASSIUM [2] of 6.64 MEQ/L and an SODIUM [2] of 144.23 MEQ/L. For the same compound, the “TOTAL BILIRUBIN” value [2] was 0.17 mg/dL, the “TOTAL PROTEIN” value [2] was 5.87 G/DL and the “URIC ACID” value [2] was 1.3 mg/dL. For the same compound, the “ABSOLUTE BASOPHIL” value [3] was 0 CELLS/uL, the “ABSOLUTE EOSINOPHIL” value [3] was 0 CELLS/uL and the “ABSOLUTE LYMPHOCYTE” value [3] was 10993 CELLS/uL. For the same compound, the “ABSOLUTE MONOCYTE” value [3] was 34 CELLS/uL, the “ABSOLUTE SEGMENTED NEUTROPHIL” value [3] was 1339.67 CELLS/uL and the BASOPHIL [3] was 0%. For the same compound, the EOSINOPHIL [3] was 0%, the “ERYTHROCYTE COUNT” value [3] was 5.96 x10E6/uL and the HEMATOCRIT [3] was 37.17%. For the same compound, the HEMOGLOBIN [3] was 14.47 G/DL, the “LEUKOCYTE COUNT” value [3] was 12.37 x10E3/uL and the LYMPHOCYTE [3] was 88.67%. For the same compound, the “MEAN CORPUSCULAR HEMOGLOBIN” value [3] was 24.27 pg, the “MEAN CORPUSCULAR HEMOGLOBIN CONCENTRATION” value [3] was 38.97 G/DL and the “MEAN CORPUSCULAR VOLUME” value [3] was 62.4 fL. For the same compound, the MONOCYTE [3] was 0.33%, the “NUCLEATED RED BLOOD CELLS” value [3] was 0 /100WBC and the “PLATELET COUNT” value [3] was 1496.67 x10E3/uL. The “ALANINE AMINOTRANSFERASE” value [3] was 47.33 u/L, the ALBUMIN [3] was 4.57 G/DL and the “ALKALINE PHOSPHATASE” value [3] was 338 u/L. For the same compound, the “ASPARTATE AMINOTRANSFERASE” value [3] was 86.67 u/L, the “BLOOD UREA NITROGEN” value [3] was 22 mg/dL and the “CARBON DIOXIDE” value [3] was 32 mmol/L. The CHLORIDE [3] was 99 MEQ/L, the CHOLESTEROL [3] was 76 mg/dL and the “CREATINE PHOSPHOKINASE” value [3] was 389.67 u/L. For the same compound, the CREATININE [3] was 0.21 mg/dL, the GLUCOSE [3] was 156.33 mg/dL and the “LACTATE DEHYDROGENASE” value [3] was 197.67 u/L. It also gave a PHOSPHORUS [3] of 12.37 mg/dL, a POTASSIUM [3] of 6.51 MEQ/L and an SODIUM [3] of 142.77 MEQ/L. For the same compound, the “TOTAL BILIRUBIN” value [3] was 0.17 mg/dL, the “TOTAL PROTEIN” value [3] was 6.4 G/DL and the “URIC ACID” value [3] was 2.33 mg/dL. The “ABSOLUTE BASOPHIL” value [4] was 0 CELLS/uL, the “ABSOLUTE EOSINOPHIL” value [4] was 126 CELLS/uL and the “ABSOLUTE LYMPHOCYTE” value [4] was 16262 CELLS/uL. For the same compound, the “ABSOLUTE MONOCYTE” value [4] was 538.67 CELLS/uL, the “ABSOLUTE SEGMENTED NEUTROPHIL” value [4] was 2873.33 CELLS/uL and the BASOPHIL [4] was 0%. The EOSINOPHIL [4] was 0.67%, the “ERYTHROCYTE COUNT” value [4] was 5.73 x10E6/uL and the HEMATOCRIT [4] was 35.13%. The HEMOGLOBIN [4] was 14.03 G/DL, the “LEUKOCYTE COUNT” value [4] was 19.8 x10E3/uL and the LYMPHOCYTE [4] was 82.33%. For the same compound, the “MEAN CORPUSCULAR HEMOGLOBIN” value [4] was 24.47 pg, the “MEAN CORPUSCULAR HEMOGLOBIN CONCENTRATION” value [4] was 40 G/DL and the “MEAN CORPUSCULAR VOLUME” value [4] was 61.27 fL. For the same compound, the MONOCYTE [4] was 2.67%, the “NUCLEATED RED BLOOD CELLS” value [4] was 0 /100WBC and the “PLATELET COUNT” value [4] was 1243.33 x10E3/uL. For the same compound, the “ALANINE AMINOTRANSFERASE” value [4] was 47.33 u/L, the ALBUMIN [4] was 3.73 G/DL and the “ALKALINE PHOSPHATASE” value [4] was 287.33 u/L. For the same compound, the “ASPARTATE AMINOTRANSFERASE” value [4] was 77.33 u/L, the “BLOOD UREA NITROGEN” value [4] was 29.67 mg/dL and the “CARBON DIOXIDE” value [4] was 27.67 mmol/L. The CHLORIDE [4] was 99.33 MEQ/L, the CHOLESTEROL [4] was 72.33 mg/dL and the “CREATINE PHOSPHOKINASE” value [4] was 467.33 u/L. For the same compound, the CREATININE [4] was 0.34 mg/dL, the GLUCOSE [4] was 139 mg/dL and the “LACTATE DEHYDROGENASE” value [4] was 171.67 u/L. It also gave a PHOSPHORUS [4] of 10.27 mg/dL, a POTASSIUM [4] of 6.39 MEQ/L and an SODIUM [4] of 143.07 MEQ/L. The “TOTAL BILIRUBIN” value [4] was 0.13 mg/dL, the “TOTAL PROTEIN” value [4] was 6.03 G/DL and the “URIC ACID” value [4] was 1.4 mg/dL.
